Measurements published in US20130123253A1, “MODULATORS OF CENTRAL NERVOUS SYSTEM NEUROTRANSMITTERS” (HUMAN BIOMOLECULAR RESEARCH INSTITUTE, priority 2004, published 2013).
Like-named read-outs stand apart in the source and are kept apart here. Values belong to the compound of their own block, whether it stands above or below them.

Columns and labels:
[1] = Rat liver microsome stability assay; type: in vitro ADME
Protocol: (§1) A typical assay mixture contained either mouse or rat liver microsomes (0.5 mg of protein), […] potassium phosphate buffer (pH 7.4), 40 μM test compounds, 0.5 mM NADP+, 0.5 mM glucose-6-phosphate, 5 IU/mL glucose-6-phosphate dehydrogenase, 1 mg/mL diethylenetriaminepentaacetic acid (DETAPAC) and 5 mM MgCl2 in a final incubation volume of 0.1 mL. After 0, 10, 25, 40 and […], the incubations were stopped by the addition of 1 ml CH2Cl2/2-propanol (3:1 v:v). The mixture was centrifuged at 12,000×g for 1 min, and the organic layer was separated from the aqueous fraction. The organic fraction was evaporated with a stream of argon and the residue was taken up in methanol (200 μL) and injected into the HPLC system described above.
Microsomal incubations (final volume 0.25 mL) with the SSRIs, dual PDE4 inhibitor/SSRIs or PDE4 inhibitor was done with an HPLC assay as described above. Diluted stocks of either mouse, human or rat liver microsomes (0.5 mg of protein), […] potassium phosphate buffer (pH 7.4), 0.5 mM NADI)^+, 0.5 mM glucose-6-phosphate, 5 IU/mL glucose-6-phosphate dehydrogenase, 0.6 mM DETAPAC, and 3 mM MgC12 were combined and placed on ice. For a metabolic stability assay, either vehicle or 40 μM test compound was added and the incubation was initiated at 37° C. with constant shaking. […] The residue was dissolved in methanol (200 μL) and the sample was analyzed by HPLC.

[2] = Mouse liver microsome stability assay; type: in vitro ADME; details: for half life, mouse liver microsomes: NADPH; for MLM t1/2: Table 16
Protocol: as §1
(§2) Microsomal incubations (final volume 0.25 mL) with the SSRIs, dual PDE4 inhibitor/SSRIs or PDE4 inhibitor was done with an HPLC assay as described above. Diluted stocks of either mouse, human or rat liver microsomes (0.5 mg of protein), […] potassium phosphate buffer (pH 7.4), 0.5 mM NADI)^+, 0.5 mM glucose-6-phosphate, 5 IU/mL glucose-6-phosphate dehydrogenase, 0.6 mM DETAPAC, and 3 mM MgC12 were combined and placed on ice. For a metabolic stability assay, either vehicle or 40 μM test compound was added and the incubation was initiated at 37° C. with constant shaking. After 0, 10, 25, 40 and 60 min, the incubations were stopped by the addition of 1 mL CH2Cl2/2-propanol (3:1, v:v). After thorough mixing, the organic layer was separated from the aqueous portion by centrifugation at 12,000×g. The organic material was evaporated with a stream of argon. The residue was dissolved in methanol (200 μL) and the sample was analyzed by HPLC.

GRK2 = target: T1, GRK2 (Homo sapiens, UniProt P25098); assay: High throughput KinaseGlo kinase assay; type: biochemical
T1 construct: host or cells: gift of a collaborator (Professor Benovic, Thomas Jefferson University)
T1 sequence (P25098 1-689): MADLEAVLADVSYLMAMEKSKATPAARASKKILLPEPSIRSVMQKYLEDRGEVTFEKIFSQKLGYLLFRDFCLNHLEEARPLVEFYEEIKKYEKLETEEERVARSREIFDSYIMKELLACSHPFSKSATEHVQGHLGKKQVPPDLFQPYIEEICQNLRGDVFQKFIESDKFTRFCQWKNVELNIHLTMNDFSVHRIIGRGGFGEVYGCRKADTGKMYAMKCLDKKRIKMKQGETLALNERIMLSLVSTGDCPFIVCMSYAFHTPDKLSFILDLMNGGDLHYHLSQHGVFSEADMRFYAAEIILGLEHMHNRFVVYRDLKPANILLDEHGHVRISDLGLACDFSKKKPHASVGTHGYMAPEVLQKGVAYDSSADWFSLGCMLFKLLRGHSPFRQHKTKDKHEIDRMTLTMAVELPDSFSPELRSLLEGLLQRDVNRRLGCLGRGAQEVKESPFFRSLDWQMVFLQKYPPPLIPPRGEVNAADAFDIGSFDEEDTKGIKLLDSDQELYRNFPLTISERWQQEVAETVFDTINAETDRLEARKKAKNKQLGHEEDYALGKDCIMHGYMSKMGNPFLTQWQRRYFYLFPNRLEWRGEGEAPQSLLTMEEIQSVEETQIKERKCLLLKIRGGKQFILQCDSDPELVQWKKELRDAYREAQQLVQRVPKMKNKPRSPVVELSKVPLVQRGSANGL

mice = assay: Morris water maze test; type: in vivo, mouse; details: 3 mg/kg, compared to control mice
Protocol: Compounds 19 and 115 were tested in a Morris water maze test. The escape latency (time to climb onto a hidden platform) for each mouse was recorded as a memory test. […] Compared to a group of control mice, compound 19 and 115 caused a 30% improvement in memory at 3 mg/kg. […] This is not completely unexpected as SSRIs often require repeated dosing to see a large and significant effect. […] Multiple dosing likely will increase the efficacy of the compounds tested.

rodent PDE4 = assay: Inhibition of rodent PDE4 (rolipram binding sites); details: Table 4
Protocol: IC50 values for inhibitor interaction with this site were calculated by nonlinear regression analysis of competition curves for unlabeled PDE4 inhibitors; Ki values were determined according to the method of Cheng and Prusoff (1973). […] Competition curves for the PDE4 inhibitors were subjected to nonlinear regression analysis and IC50 values with which the inhibitors bind to each of the binding sites was determined; K1 values were determined according to the method of Cheng and Prusoff (1973).

ICR mice = assay: Forced-swim test in ICR mice; type: in vivo, mouse
Protocol: Forty male ICR mice, weighed 26.2±0.3 g, were housed in a temperature-controlled room (22-23° C.) and maintained on a 12-hour on 12-hour off light cycle (lights on at 6:00 AM). Water and food were freely available in the home cages. […] Saline containing the same percentage of DMSO was used as vehicle. The lower doses were tested followed by the larger doses 1 week later, when the mice were again randomly divided into four groups as described above. The forced-swim test (FST) was carried out as described previously. Mice were given a swimming pretest session, once a day for two successive days. Twenty-four hours after the last session, mice were injected vehicle or the lower dose of each test compound by the i.p. route 30 min prior to the FST. One week later, administration of the larger dose of each of the test compounds was repeated. During the pretest and test sessions, each mouse was placed for 6 min in a plastic cylinder (45 cm high×20 cm diameter), which was filled to a depth of 28 cm with water (23±1° C.). The duration of immobility, which was defined as floating in an upright position without additional activity other than that necessary for the animal to keep its head above water, was recorded.

Balb/c mice = assay: Forced-swim test in Balb/c mice; type: in vivo, mouse; details: i.p. 23, 5 and 1 hr prior; fluoxetine 10 mg/kg, 18k/l or 14 10 mg/kg, 21 1 mg/kg
Protocol: The study was conducted according to a standard operation procedure and in accordance with all Federal regulations. Water and food were freely available in the home cages. […] Mice were given a swimming pretest session, once a day for two successive days. […] During the pretest and test sessions, each mouse was placed for […] in a plastic cylinder (45 cm high×20 cm diameter), which was filled to a depth of 28 cm with water (23±1° C.). The duration of immobility, which was defined as floating in an upright position without additional activity other than that necessary for the animal to keep its head above water, was recorded. For the subchronic administration tests, the animals were separated as above and vehicle or chemicals were given by i.p. administration 23, 5 and 1 hr before the FST. The subchronic experiments were done similar to the study described above except for the pretest training that was not carried out.
Mice in the first session were treated with vehicle or the drugs acutely, whereas mice in the second sessions were treated subchronically, i.e., vehicle or drugs were given i.p. 23, 5, and 1 hr before the FST. The experiment was performed similar to Experiment 1 except for the pretest training, which was not carried out in the second session.

human PDE4B3 = target: T2, human PDE4B3 (Homo sapiens, UniProt Q07343); assay: Inhibition of cAMP hydrolysis by recombinant human PDE4B3; type: biochemical; details: Example 29
T2 construct: made in house
T2 sequence (Q07343 1-721 isoform Q07343-3): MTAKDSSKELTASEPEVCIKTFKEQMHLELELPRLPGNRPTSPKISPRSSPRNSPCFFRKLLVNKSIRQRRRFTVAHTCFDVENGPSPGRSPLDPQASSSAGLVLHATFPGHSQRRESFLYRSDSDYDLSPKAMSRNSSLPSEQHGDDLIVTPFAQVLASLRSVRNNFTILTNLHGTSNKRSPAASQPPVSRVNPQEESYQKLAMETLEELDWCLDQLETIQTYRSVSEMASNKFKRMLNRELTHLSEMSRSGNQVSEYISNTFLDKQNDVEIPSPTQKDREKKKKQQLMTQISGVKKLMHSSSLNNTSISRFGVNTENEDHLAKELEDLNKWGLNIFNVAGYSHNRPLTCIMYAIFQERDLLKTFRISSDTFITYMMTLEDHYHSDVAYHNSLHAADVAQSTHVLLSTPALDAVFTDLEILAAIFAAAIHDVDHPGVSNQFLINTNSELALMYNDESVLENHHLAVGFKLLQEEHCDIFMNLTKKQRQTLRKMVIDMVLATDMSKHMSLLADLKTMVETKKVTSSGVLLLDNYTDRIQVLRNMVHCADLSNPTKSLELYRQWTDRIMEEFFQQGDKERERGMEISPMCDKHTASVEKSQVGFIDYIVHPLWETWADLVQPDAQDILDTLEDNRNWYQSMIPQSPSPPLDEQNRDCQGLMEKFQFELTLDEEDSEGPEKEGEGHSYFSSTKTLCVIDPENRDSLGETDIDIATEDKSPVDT
Protocol: (§3) PDE4 enzyme assays were carried out as described previously. Studies with recombinant PDE4 enzymes were carried out in the laboratory of Professor Marco Conti (Stanford University, Palo Alto, Calif.).

[3] = Human liver microsome stability assay; type: in vitro ADME
Protocol: as §2

human PDE4A1 = target: T3, human PDE4A1 (Homo sapiens, UniProt P27815); assay: Inhibition of cAMP hydrolysis by recombinant human PDE4A1; type: biochemical
T3 construct: made in house
T3 sequence (P27815 1-647 isoform P27815-4): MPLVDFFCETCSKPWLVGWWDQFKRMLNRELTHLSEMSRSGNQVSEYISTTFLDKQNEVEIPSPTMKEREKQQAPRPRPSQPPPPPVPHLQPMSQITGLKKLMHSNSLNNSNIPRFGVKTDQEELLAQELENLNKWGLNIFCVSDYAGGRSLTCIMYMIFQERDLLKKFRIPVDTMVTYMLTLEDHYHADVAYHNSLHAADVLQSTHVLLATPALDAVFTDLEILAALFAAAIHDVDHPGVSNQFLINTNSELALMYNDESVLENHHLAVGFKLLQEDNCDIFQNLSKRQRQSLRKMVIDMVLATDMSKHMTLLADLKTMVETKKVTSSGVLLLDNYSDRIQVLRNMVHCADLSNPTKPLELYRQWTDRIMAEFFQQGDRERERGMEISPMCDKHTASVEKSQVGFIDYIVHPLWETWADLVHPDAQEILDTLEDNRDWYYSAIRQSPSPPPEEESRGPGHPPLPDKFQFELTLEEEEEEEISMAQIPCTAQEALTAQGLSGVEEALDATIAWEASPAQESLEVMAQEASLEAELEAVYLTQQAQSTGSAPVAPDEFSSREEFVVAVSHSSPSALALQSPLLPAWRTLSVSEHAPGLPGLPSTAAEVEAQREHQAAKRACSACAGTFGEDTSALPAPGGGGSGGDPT
Protocol: as §3

human PDE4D3 = target: T4, human PDE4D3 (Homo sapiens, UniProt Q08499); assay: Inhibition of cAMP hydrolysis by recombinant human PDE4D3; type: biochemical
T4 construct: made in house; host or cells: Cos 7 cells (construct and cells a gift from Dr. Conti, Stanford)
T4 sequence (Q08499 1-673 isoform Q08499-2): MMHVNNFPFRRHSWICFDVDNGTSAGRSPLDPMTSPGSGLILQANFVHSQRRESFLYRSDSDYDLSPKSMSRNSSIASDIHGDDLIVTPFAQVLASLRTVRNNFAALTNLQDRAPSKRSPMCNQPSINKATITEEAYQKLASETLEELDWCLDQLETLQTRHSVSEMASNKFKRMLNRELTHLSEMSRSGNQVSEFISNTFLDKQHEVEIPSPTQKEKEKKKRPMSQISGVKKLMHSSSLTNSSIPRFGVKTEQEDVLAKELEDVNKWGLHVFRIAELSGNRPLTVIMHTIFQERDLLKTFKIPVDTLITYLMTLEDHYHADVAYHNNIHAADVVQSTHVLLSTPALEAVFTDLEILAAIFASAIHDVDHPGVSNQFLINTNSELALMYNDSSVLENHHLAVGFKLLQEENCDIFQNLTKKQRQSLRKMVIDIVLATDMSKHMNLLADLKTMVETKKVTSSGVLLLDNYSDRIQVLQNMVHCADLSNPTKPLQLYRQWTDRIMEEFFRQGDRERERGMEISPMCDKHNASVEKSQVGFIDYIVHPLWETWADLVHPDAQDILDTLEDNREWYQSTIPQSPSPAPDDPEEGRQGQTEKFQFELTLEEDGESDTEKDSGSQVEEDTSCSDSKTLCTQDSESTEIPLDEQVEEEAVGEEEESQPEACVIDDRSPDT
Protocol: The PDE construct was transfected into Cos 7 cells in round culture dish (100×20 mm). The cells were then harvested and homogenized with lysis buffer. The crude homogenate was spun at maximum speed in a microfuge. The supernatant fluid was saved as an extract. […] The PDE construct and Cos 7 cells were a kind gift from Dr. Conti at the Stanford University School of Medicine.
as §3

half life, rat liver microsomes ([1]; NADPH): 2.15 h | RLM t1/2 ([1]; Table 16): 2.15 h | half life, mouse liver microsomes [2]: 0.967 h | MLM t1/2 [2]: 0.975 h
Structure (SMILES): CNCCC1CCC(CCc2cc(F)ccc2OC)O1 (stereo not shown) [Compound 24, (2-{5-[2-(5-Fluoro-2-methoxy-phenyl)-ethyl]-tetrahydro-furan-2-yl}-ethyl)-methyl-amine]

Structure (SMILES): NC1CC1c1cccnc1 (stereo not shown) [2-(pyridine-3-yl)cyclopropanamine]
GRK2 stimulation or inhibition (GRK2): potent stimulators of GRK2

Structure (SMILES): COc1ccc(F)cc1CCC1CCC(CCN)O1 (stereo not shown) [Compound 28]
improvement in memory (escape latency) (mice): ~10% | GRK2 stimulation or inhibition (GRK2): potent stimulators of GRK2

pIC50 (rodent PDE4): 6.6 | Ki (human PDE4B3): 0.199 µM | half life, mouse liver microsomes [2]: 2.57 h | MLM t1/2 [2]: 2.565 h | metabolism in human liver microsomes ([3]; NADPH, up to 60 min): not detectably metabolized | half-life at 40 μM ([3]; human, liver microsomes, pH 7.4, Table 16, read-out: HLM t1/2): > 1 h | Ki (human PDE4A1; Example 29, read-out: Ki, human PDE4A1): > 1 µM | Ki (human PDE4A1; Table 14, read-out: Human PDE4A1 Ki): < 1 µM | PDE4A1/PDE4D3 inhibitory selectivity ratio (human PDE4D3): < 500 fold | PDE4B3/PDE4D3 inhibitory selectivity ratio (human PDE4D3): 100 fold | Ki (human PDE4D3; Example 29, read-out: Ki, human PDE4D3): 0.002 µM
Structure (SMILES): COc1ccc(F)cc1CCC1CCC(CCNCCCCCN2N=C(c3ccc(OC)c(OC)c3)C3CC=CCC3C2=O)O1 (racemic) [Compound 21, 4-(3,4-Dimethoxy-phenyl)-2-[5-(2-{5-[2-(5-fluoro-2-methoxy-phenyl)-ethyl]-thtrahydro-furan-2-yl}-ethylamino)-pentyl]-4,5,8,8a-tetrahydro-2H-phthalazin-1-one]
immobility, forced-swim test, acute, higher dose (ICR mice; 3 mg/kg i.p., vs vehicle, P<0.05): significantly reduced immobility | duration of immobility, forced-swim test, acute (ICR mice; 0.3 and 3 mg/kg i.p.): decreased duration of immobility in a dose-dependent manner | efficacy relative to fluoxetine on a molar basis (ICR mice; 21 0.5 μmol/kg vs fluoxetine 65 μmol/kg): 129 fold | immobility, forced-swim test, subchronic (Balb/c mice): did not change immobility
